Data reported in patent publication US20240197888A1, “SOS1 PROTEIN DEGRADERS, PHARMACEUTICAL COMPOSITIONS THEREOF, AND THEIR THERAPEUTIC APPLICATIONS” (BioTheryX, Inc., priority 2021, published 2024).

Tests used:
Assay type in all cases: cell-based
[1] = tested on: SW48 (wt) cells; assay: Cell viability assay (CELLTITER-GLO), SW48 cells; conditions: Homo sapiens, 72 h, Inhibition of cancerous cells, 3 days incubation, luminescence
Method: (§1) AsPC-1, H358, and SW48 cells were cultured in RPMI 1640 media supplemented with 10% fetal bovine serum, streptomycin, and penicillin. Lovo and SW480 cells were cultured in DMEM media supplemented with 10% fetal bovine serum, streptomycin, and penicillin. The cell lines were plated in their respective medium supplemented with 2.5% fetal bovine serum, streptomycin, and penicillin. All cell lines were plated in white walled 96-well plates at 2,000 cells/well or 384-well plates at 500 cells/well, except Lovo, which were plated at 4,000 or 1,000 cells/well, respectively. The cells were incubated in DMSO (control) or a compound for 3 days at 37° C. under 5% CO2. A CELLTITER-GLO® reagent ([…] was then added to each well. After a 10 min incubation with shaking, luminescence was measured using an ENVISION® multimode plate reader. IC50 values are summarized in Table 1.

[2] = tested on: AsPC-1 (G12D) cells; assay: Cell viability assay (CELLTITER-GLO), AsPC-1 cells; conditions: Homo sapiens, ASPC1, 72 h, Inhibition of cancerous cells, 3 days incubation, luminescence
Method: as §1

[3] = tested on: H358 (G12C) cells; assay: Cell viability assay (CELLTITER-GLO), H358 cells; conditions: Homo sapiens, NCI-H358, 72 h, Inhibition of cancerous cells, 3 days incubation, luminescence
Method: as §1

[4] = tested on: Lovo (G13D) cells; assay: Cell viability assay (CELLTITER-GLO), Lovo cells; conditions: Homo sapiens, 72 h, Inhibition of cancerous cells, 3 days incubation, luminescence
Method: as §1

[5] = tested on: SW480 (G12V) cells; assay: Cell viability assay (CELLTITER-GLO), SW480 cells; conditions: Homo sapiens, 72 h, Inhibition of cancerous cells, 3 days incubation, luminescence
Method: as §1

Compound	IC50 [1]	IC50 [2]	IC50 [3]	IC50 [4]	IC50 [5]
CNCc1ccccc1-c1csc(C(C)Nc2nc(C)nc3cc(OCCCCCCCN4CCC(C(F)(F)F)CC4)c(OC)cc23)c1 (stereo in doubt) [Compound A66, (R)-6-Methoxy-2-methyl-N-(1-(4-(2-((methylamino)methyl)phenyl)thiophen-2-yl)ethyl)-7-((7-(4-(trifluoromethyl)piperidin-1-yl)heptyl)oxy)quinazolin-4-amine]	0.82 µM	2 µM	1.2 µM	1.1 µM	0.55 µM
CNCc1ccccc1-c1csc([C@H](C)Nc2nc(C)nc3cc(OCCCCCCC(C)(C)C)c(OC)cc23)c1 [Compound A59, (S)-7-((7,7-Dimethyloctyl)oxy)-6-methoxy-2-methyl-N-(1-(4-(2-((methylamino)-methyl)phenyl)thiophen-2-yl)ethyl)quinazolin-4-amine]		3.1 µM			
CNCc1ccccc1-c1csc([C@@H](C)Nc2nc(C)nc3cc(OCCCCCCCC4CCC(c5ccccc5)CC4)c(OC)cc23)c1 (stereo partly drawn) [Compound A60, (R)-6-Methoxy-2-methyl-N-(1-(4-(2-((methylamino)methyl)phenyl)thiophen-2-yl)ethyl)-7-((7-(4-phenylcyclohexyl)heptyl)oxy)quinazolin-4-amine]	0.17 µM	0.51 µM	0.53 µM	0.24 µM	0.25 µM
CNCc1ccccc1-c1csc([C@@H](C)Nc2nc(C)nc3cc(OCCC(C)(C)C)c(OC)cc23)c1 [Compound A62, (R)-7-(3,3-Dimethylbutoxy)-6-methoxy-2-methyl-N-(1-(4-(2-((methylamino)-methyl)phenyl)thiophen-2-yl)ethyl)quinazolin-4-amine]	0.53 µM	1.1 µM	1.3 µM	0.5 µM	0.45 µM
CNCc1ccccc1-c1csc([C@H](C)Nc2nc(C)nc3cc(OCCC(C)(C)C)c(OC)cc23)c1 [Compound A63, (S)-7-(3,3-Dimethylbutoxy)-6-methoxy-2-methyl-N-(1-(4-(2-((methylamino)-methyl)phenyl)thiophen-2-yl)ethyl)quinazolin-4-amine]	0.53 µM	1 µM	1.1 µM	0.42 µM	0.46 µM
CNCc1ccccc1-c1csc([C@@H](C)Nc2nc(C)nc3cc(OCCCCCCCN4CCN(C(C)=O)CC4)c(OC)cc23)c1 [Compound A64, (R)-1-(4-(7-((6-Methoxy-2-methyl-4-((1-(4-(2-((methylamino)methyl)phenyl)-thiophen-2-yl)ethyl)amino)quinazolin-7-yl)oxy)heptyl)piperazin-1-yl)ethan-1-one]	0.68 µM	1.1 µM	1.4 µM	0.45 µM	0.46 µM
CNCc1ccccc1-c1csc([C@H](C)Nc2nc(C)nc3cc(OCCCCCCCN4CCN(C(C)=O)CC4)c(OC)cc23)c1 [Compound A65, (S)-1-(4-(7-((6-Methoxy-2-methyl-4-((1-(4-(2-((methylamino)methyl)phenyl)-thiophen-2-yl)ethyl)amino)quinazolin-7-yl)oxy)heptyl)piperazin-1-yl)ethan-1-one]	0.53 µM	0.68 µM	1.1 µM	0.34 µM	0.38 µM
CNCc1ccccc1-c1csc([C@@H](C)Nc2nc(C)nc3cc(OCCCCCCCN4CCC(C(F)(F)F)CC4)c(OC)cc23)c1 [Compound A67, (R)-6-Methoxy-2-methyl-N-(1-(4-(2-((methylamino)methyl)phenyl)thiophen-2-yl)ethyl)-7-((7-(4-(trifluoromethyl)piperidin-1-yl)heptyl)oxy)quinazolin-4-amine]	0.53 µM	0.59 µM	1.2 µM	0.54 µM	0.44 µM
CNCc1ccccc1-c1csc([C@@H](C)Nc2nc(C)nc3cc(OCCCCCCC(=O)N4CCCCC4)c(OC)cc23)c1 [Compound A68, (R)-7-((6-Methoxy-2-methyl-4-((1-(4-(2-((methylamino)methyl)phenyl)thiophen-2-yl)ethyl)amino)quinazolin-7-yl)oxy)-1-(piperidin-1-yl)heptan-1-one]	0.55 µM	1.5 µM	0.65 µM	0.36 µM	0.36 µM
CNCc1ccccc1-c1csc([C@H](C)Nc2nc(C)nc3cc(OCCCCCCC(=O)N4CCCCC4)c(OC)cc23)c1 [Compound A69, (S)-7-((6-Methoxy-2-methyl-4-((1-(4-(2-((methylamino)methyl)phenyl)thiophen-2-yl)ethyl)amino)quinazolin-7-yl)oxy)-1-(piperidin-1-yl)heptan-1-one]	0.66 µM	2 µM	0.93 µM	0.72 µM	0.41 µM
COc1cc2c(N[C@H](C)c3cccc(Br)c3)nc(C)nc2cc1OCCCCCCCNCCC(F)(F)F [Compound A70, (R)—N-(1-(3-Bromophenyl)ethyl)-6-methoxy-2-methyl-7-((7-((3,3,3-trifluoro-propyl)amino)heptyl)oxy)quinazolin-4-amine]	0.98 µM	1.3 µM	1.4 µM	0.5 µM	0.93 µM
COc1cc2c(N[C@H](C)c3cccc(Br)c3)nc(C)nc2cc1OCCCCCCCN1CCC2(CCNCC2)CC1 [Compound A71, (R)-7-((7-(3,9-Diazaspiro[5.5]undecan-3-yl)heptyl)oxy)-N-(1-(3-bromophenyl)-ethyl)-6-methoxy-2-methylquinazolin-4-amine]	1.4 µM	2.7 µM	2.8 µM	1.4 µM	1.5 µM
COc1cc2c(N[C@H](C)c3cccc(Br)c3)nc(C)nc2cc1OCCCCCCCN1CCC2(CC1)CCN(C(=O)OC(C)(C)C)CC2 [Compound A72, Tert-butyl (R)-9-(7-((4-((1-(3-bromophenyl)ethyl)amino)-6-methoxy-2-methyl-quinazolin-7-yl)oxy)heptyl)-3,9-diazaspiro[5.5]undecane-3-carboxylate]	0.64 µM	1 µM	1.1 µM	0.39 µM	0.48 µM
COc1cc2c(N[C@H](C)c3cccc(Br)c3)nc(C)nc2cc1OCCCCCCCN1CCOCC1 [Compound A75, (R)—N-(1-(3-Bromophenyl)ethyl)-6-methoxy-2-methyl-7-((7-morpholinoheptyl)-oxy)quinazolin-4-amine]	0.66 µM		0.73 µM	0.25 µM	0.59 µM
COc1cc2c(N[C@H](C)c3cccc(Br)c3)nc(C)nc2cc1OCCCCCCCC(=O)N[C@H]1CCC(=O)NC1=O [Compound A77, 8-((4-(((R)-1-(3-Bromophenyl)ethyl)amino)-6-methoxy-2-methylquinazolin-7-yl)oxy)-N—((S)-2,6-dioxopiperidin-3-yl)octanamide]	5.1 µM		6.7 µM	2.9 µM	3.9 µM
COc1cc2nc(C)nc(N[C@H](C)c3cccc(Br)c3)c2cc1OC [reference compound]	3.6 µM	5.1 µM	3.2 µM	2.5 µM	3.4 µM
CNCc1ccccc1-c1csc([C@@H](C)Nc2nc(C)nc3cc(OC)c(OC)cc23)c1 [reference compound]	1.3 µM	3.5 µM	1.7 µM	0.69 µM	1 µM
COc1cc2nc(C)nc(N[C@H](C)c3cc(N)cc(C(F)(F)F)c3)c2cc1OC [reference compound]	> 10 µM	> 10 µM	> 10 µM	> 10 µM	> 10 µM
COc1cc2nc(C)nc(N[C@H](C)c3cccc(C(F)(F)CO)c3)c2cc1OC [reference compound]	> 10 µM	> 10 µM	> 10 µM	> 10 µM	> 10 µM
